Tests used:
IL-6 = IL-6 secretion by THP-1-derived macrophages, ELISA; format: cell-based; details: 24 h
Protocol: First, the effect on the secretion of these mediators by macrophages was evaluated. Secondly, the direct neutralization of already secreted mediators was evaluated. Both were measured by the state-of-the-art ELISA technique. First, the secretion of the pro-inflammatory mediator representatives IL-6, TNFa and MMP9 in cell culture supernatants by THP-1 (a monocytic cell line) after its differentiation into macrophages were measured. In brief, THP-1 cells were seeded at a density of 3×10^5 cells/cm^2 in a 6-well plate in the presence of 160 nM of phorbol-12-myristate-13-acetate (PMA) to induce macrophage differentiation. Differentiation was further conducted for 48 h. […] Supernatants were collected and centrifuged at 150 g for 5 min to remove cell debris and were kept at −20° C. before being processed for ELISA. IL-6, TNFa and MMP9 ELISA kits were purchased from BioTechne and the experiment was performed according to manufacturer's instructions. Briefly, 96-well plates were coated with capture antibodies overnight at room temperature. […] After several washing steps, the corresponding detection antibody, which is coupled to biotin, was incubated for 2 h. […] The reaction was stopped by the addition of sulphuric acid and absorbance at 450 nm was read with a plate reader. Absorbance is proportional to the concentration of analyte present in the medium, which was calculated based on a standard curve realized with recombinant IL-6, TNFa and MMP9.

S. aureus (ATCC®6538™) = assay: Microbial challenge testing in alginogel with GOX+EPO; format: cell-based; details: isoleucine 0.0025% (w/w)
Protocol: In a further experiment, the efficacy of antimicrobial activity enhancement by isoleucine of the GOX combination with eosinophil peroxidase (EPO) was evaluated. In view hereof, a test was set up as described in the section on ‘challenge testing’ described above with the difference that EPO was used instead of LPO.
In brief, microbial challenge testing was performed according to the method described in the European Pharmacopoeia current version chapter 5.1.3 ‘Efficacy of antimicrobial preservation’, but with adapted time points (0, 10, 20, 30, 40, 50, 60, 70 and 80 min instead of 0, 2, 7, 14 and 28 days). […] After preparation, a homogenous sample of 10 g was transferred into a 50 ml conical tube for each alginogel to be evaluated. […] Then, the 50 ml conical tubes containing the alginogel samples to be evaluated were inoculated with 100 μl of the designated inoculum and incubated at 25° C. for 80 minutes. At the start (time point 0) and after 0, 10, 20, 30, 40, 50, 60, 70 and 80 min, the number of viable microorganisms per gram product (expressed as CFU/g) was determined by transferring a sample of 0.5 g of the product into a 15 ml conical tube containing 4.5 ml of sterile diluent and applying general dilution and plate count techniques. For each combination evaluated, the absolute counts (expressed as log(CFU/g)) at each timepoint were visualized in a graph. […]

MMP9 = MMP9 secretion by THP-1-derived macrophages, ELISA; format: cell-based; details: 24 h
Protocol: First, the effect on the secretion of these mediators by macrophages was evaluated. Secondly, the direct neutralization of already secreted mediators was evaluated. Both were measured by the state-of-the-art ELISA technique. First, the secretion of the pro-inflammatory mediator representatives IL-6, TNFa and MMP9 in cell culture supernatants by THP-1 (a monocytic cell line) after its differentiation into macrophages were measured. In brief, THP-1 cells were seeded at a density of 3×10^5 cells/cm^2 in a 6-well plate in the presence of 160 nM of phorbol-12-myristate-13-acetate (PMA) to induce macrophage differentiation. Differentiation was further conducted for 48 h. […] Supernatants were collected and centrifuged at 150 g for 5 min to remove cell debris and were kept at −20° C. before being processed for ELISA. IL-6, TNFa and MMP9 ELISA kits were purchased from BioTechne and the experiment was performed according to manufacturer's instructions. Briefly, 96-well plates were coated with capture antibodies overnight at room temperature. […] The reaction was stopped by the addition of sulphuric acid and absorbance at 450 nm was read with a plate reader. Absorbance is proportional to the concentration of analyte present in the medium, which was calculated based on a standard curve realized with recombinant IL-6, TNFa and MMP9.

GOX = GOX (Aspergillus niger, UniProt P13006); assay: Glucose oxidase (GOX) activity, spectrophotometric assay; format: biochemical; details: reference = no potentiator candidate
Sequence of GOX (P13006 17-605): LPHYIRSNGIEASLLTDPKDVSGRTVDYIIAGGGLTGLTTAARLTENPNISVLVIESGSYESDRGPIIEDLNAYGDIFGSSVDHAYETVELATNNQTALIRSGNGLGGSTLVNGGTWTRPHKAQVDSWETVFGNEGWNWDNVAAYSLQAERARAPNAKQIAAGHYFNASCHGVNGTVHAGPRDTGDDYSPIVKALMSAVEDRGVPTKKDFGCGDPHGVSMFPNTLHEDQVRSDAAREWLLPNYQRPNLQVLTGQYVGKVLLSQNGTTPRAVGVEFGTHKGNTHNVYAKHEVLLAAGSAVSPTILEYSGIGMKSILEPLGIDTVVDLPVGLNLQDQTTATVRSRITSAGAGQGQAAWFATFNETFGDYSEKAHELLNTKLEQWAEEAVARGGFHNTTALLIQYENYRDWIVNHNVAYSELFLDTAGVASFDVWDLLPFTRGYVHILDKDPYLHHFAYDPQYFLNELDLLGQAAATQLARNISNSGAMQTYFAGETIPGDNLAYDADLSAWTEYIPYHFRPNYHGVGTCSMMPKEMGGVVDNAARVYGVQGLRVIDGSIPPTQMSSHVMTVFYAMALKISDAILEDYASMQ
Protocol: The natural enzyme GOX is an oxidoreductase that catalyses the oxidation of glucose to gluconic acid and hydrogen peroxide (H2O2) in the presence of water and air. To measure the enzymatic activity of GOX, a standard spectrophotometric assay is performed. In brief, a second oxidoreductase enzyme, peroxidase, and a chromogenic oxygen acceptor, o-dianisidine, are added to the former reaction mix (GOX+glucose+water+air) so that the formation of a coloured compound is achieved that can in turn be measured by spectrophotometry. GOX was tested in 4 different concentrations, i.e., 100, 50, 10 and 1 mg/ml. Each reaction mixture was tested in duplo. In the event GOX activity was evaluated in the presence of a potentiator candidate (=a molecule that might be able to augment the enzymatic activity of GOX), the latter was added in a low and high concentration ranging from 100 to 0.1 mg/ml. The blank consisted of the reaction mix in which the enzymes were absent. After mixing all reaction elements, absorbance was immediately measured with a plate reader (Spectramax ID3, Molecular Devices) every minute for 5 minutes at 35° C. For each combination evaluated, this test was repeated at least 2 times. Results were further analysed in MS Excel and expressed as U/g. Mean blank-corrected data±SD were plotted. Statistical significance compared to the combination without potentiator candidate (reference) was calculated using students' t-tests. Significance is achieved when the obtained p-value is lower than 0,05. Significance levels were defined as p<0.05=*; p<0.01=** and p<0.001=***.

## CC[C@H](C)[C@H](N)C(=O)O [Isoleucine, isoleucine]
IL-6; isoleucine 0.0025%
  additional decrease in IL-6 secretion by macrophages vs GOX+LPO (1:1) alone: 7.6%
IL-6; isoleucine 0.05%
  additional decrease in IL-6 secretion by macrophages vs GOX+LPO (1:1) alone: 20.6%
IL-6; isoleucine 0.5%
  additional decrease in IL-6 secretion by macrophages vs GOX+LPO (1:1) alone: 33.6%
S. aureus (ATCC®6538™)
  time to complete reduction of absolute S. aureus counts: 80 min
MMP9; isoleucine 0.0025%
  additional decrease in MMP9 secretion by macrophages vs GOX+LPO (1:1) alone: 12.7%
MMP9; isoleucine 0.05%
  additional decrease in MMP9 secretion by macrophages vs GOX+LPO (1:1) alone: 21.5%

## O=C(O)[C@@H]1CCCN1 [Proline, proline]
GOX; enhancer 0.1 mg/ml
  GOX activity compared to reference: significant increase
GOX; enhancer 100 mg/ml
  GOX activity compared to reference: significant increase
